Patent US20120220562A1, “Anti-Viral Compounds” (ABBOTT LABAORATORIES, priority 2011, published 2012)

Each molecule was assayed on HCV 1b-Con1 replicon (assay: HCV 1b-Con1 replicon assay in the presence of 5% FBS). Settings: Hepatitis C virus.
Format: cell-based

Row | Structure (SMILES) | EC50
1 | COC(=O)N[C@H](C(=O)N1CCC[C@H]1c1nc2cc([C@H]3CC[C@@H](c4cc5nc([C@@H]6CCCN6C(=O)[C@@H](NC(=O)OC)C(C)C)[nH]c5cc4F)N3c3cnc(N4CCCCC4)nc3)c(F)cc2[nH]1)C(C)C [Example 3.47, methyl {(2S)-1-[(2S)-2-(6-fluoro-5-{(2R,5S)-5-{6-fluoro-2-[(2S)-1-{(2S)-2-[(methoxycarbonyl)amino]-3-methylbutanoyl}pyrrolidin-2-yl]-1H-benzimidazol-5-yl}-1-[2-(piperidin-1-yl)pyrimidin-5-yl]pyrrolidin-2-yl}-1H-benzimidazol-2-yl)pyrrolidin-1-yl]-3-methyl-1-oxobutan-2-yl}carbamate] | < 0.1 nM
2 | COC(=O)N[C@H](C(=O)N1CCC[C@H]1c1nc2cc([C@H]3CC[C@H](c4ccc5[nH]c([C@@H]6CCCN6C(=O)[C@@H](NC(=O)OC)C(C)C)nc5c4)N3c3cc(F)c(N4CC=C(c5ccccc5)CC4)c(F)c3)ccc2[nH]1)C(C)C [Example 5.15, methyl {(2S)-1-[(2S)-2-{5-[(2R,5R)-1-[3,5-difluoro-4-(4-phenyl-3,6-dihydropyridin-1(2H)-yl)phenyl]-5-{2-[(2S)-1-{(2S)-2-[(methoxycarbonyl)amino]-3-methylbutanoyl}pyrrolidin-2-yl]-1H-benzimidazol-5-yl}pyrrolidin-2-yl]-1H-benzimidazol-2-yl}pyrrolidin-1-yl]-3-methyl-1-oxobutan-2-yl}carbamate] | < 0.1 nM
3 | COC(=O)N[C@H](C(=O)N1CCC[C@H]1c1nc2cc(F)c([C@H]3CC[C@H](c4cc5[nH]c([C@@H]6CCCN6C(=O)[C@@H](NC(=O)OC)C(C)C)nc5cc4F)N3c3cc(F)c(N4CCC(Cc5ccccc5)CC4)c(F)c3)cc2[nH]1)C(C)C [Example 4.44, methyl {(2S)-1-[(2S)-2-{6-[(2R,5R)-1-[4-(4-benzylpiperidin-1-yl)-3,5-difluorophenyl]-5-{5-fluoro-2-[(2S)-1-{(2S)-2-[(methoxycarbonyl)amino]-3-methylbutanoyl}pyrrolidin-2-yl]-1H-benzimidazol-6-yl}pyrrolidin-2-yl]-5-fluoro-1H-benzimidazol-2-yl}pyrrolidin-1-yl]-3-methyl-1-oxobutan-2-yl}carbamate] | < 0.1 nM
4 | COC(=O)N[C@H](C(=O)N1CCC[C@H]1c1nc2cc([C@H]3CC[C@H](c4ccc5[nH]c([C@@H]6CCCN6C(=O)[C@@H](NC(=O)OC)C(C)C)nc5c4)N3c3ccc(N4CCC(c5ccccc5)CC4)cc3)ccc2[nH]1)C(C)C [Example 4.25, methyl {(2S)-1-[(2S)-2-(5-{(2R,5R)-5-{2-[(2S)-1-{(2S)-2-[(methoxycarbonyl)amino]-3-methylbutanoyl}pyrrolidin-2-yl]-1H-benzimidazol-5-yl}-1-[4-(4-phenylpiperidin-1-yl)phenyl]pyrrolidin-2-yl}-1H-benzimidazol-2-yl)pyrrolidin-1-yl]-3-methyl-1-oxobutan-2-yl}carbamate] | 0.1 to 1 nM
5 | COC(=O)N[C@H](C(=O)N1CCC[C@H]1c1nc2c(C)c([C@H]3CC[C@H](c4ccc5[nH]c([C@@H]6CCCN6C(=O)[C@@H](NC(=O)OC)C(C)C)nc5c4C)N3c3ccc(C(C)(C)C)cc3)ccc2[nH]1)C(C)C [Example 6.7, methyl {(2S)-1-[(2S)-2-{5-[(2R,5R)-1-(4-tert-butylphenyl)-5-{2-[(2S)-1-{(2S)-2-[(methoxycarbonyl)amino]-3-methylbutanoyl}pyrrolidin-2-yl]-4-methyl-1H-benzimidazol-5-yl}pyrrolidin-2-yl]-4-methyl-1H-benzimidazol-2-yl}pyrrolidin-1-yl]-3-methyl-1-oxobutan-2-yl}carbamate] | < 0.1 nM
6 | COC(=O)N[C@H](C(=O)N1CCC[C@H]1c1nc2cc([C@H]3CC[C@H](c4ccc5[nH]c([C@@H]6CCCN6C(=O)[C@@H](NC(=O)OC)C(C)C)nc5c4)N3c3cc(F)c(N4CCCCC4)c(F)c3F)ccc2[nH]1)C(C)C [Example 4.7, methyl {(2S)-1-[(2S)-2-(5-{(2R,5R)-5-{2-[(2S)-1-{(2S)-2-[(methoxycarbonyl)amino]-3-methylbutanoyl}pyrrolidin-2-yl]-1H-benzimidazol-5-yl}-1-[2,3,5-trifluoro-4-(piperidin-1-yl)phenyl]pyrrolidin-2-yl}-1H-benzimidazol-2-yl)pyrrolidin-1-yl]-3-methyl-1-oxobutan-2-yl}carbamate] | < 0.1 nM
7 | CCC(CC)C(NC(=O)OC)C(=O)N1CCC[C@H]1c1nc2cc([C@H]3CC[C@H](c4ccc5[nH]c([C@@H]6CCCN6C(=O)C(NC(=O)OC)C(CC)CC)nc5c4)N3c3cc(F)c(N4CCC(c5ccccc5)CC4)c(F)c3)ccc2[nH]1 (stereo partly drawn) [Example 3.29, methyl {1-[(2S)-2-{5-[(2R,5R)-1-[3,5-difluoro-4-(4-phenylpiperidin-1-yl)phenyl]-5-{2-[(2S)-1-{3-ethyl-2-[(methoxycarbonyl)amino]pentanoyl}pyrrolidin-2-yl]-1H-benzimidazol-5-yl}pyrrolidin-2-yl]-1H-benzimidazol-2-yl}pyrrolidin-1-yl]-3-ethyl-1-oxopentan-2-yl}carbamate] | < 0.1 nM
8 | COC(=O)N[C@H](C(=O)N1C[C@@H](OC)C[C@H]1c1nc2cc([C@H]3CC[C@H](c4ccc5[nH]c([C@@H]6C[C@H](OC)CN6C(=O)[C@@H](NC(=O)OC)C(C)C)nc5c4)N3c3ccc(F)cc3)ccc2[nH]1)C(C)C [Example 3.10, methyl {(2S)-1-[(2S,4S)-2-{5-[(2R,5R)-1-(4-fluorophenyl)-5-{2-[(2S,4S)-4-methoxy-1-{(2S)-2-[(methoxycarbonyl)amino]-3-methylbutanoyl}pyrrolidin-2-yl]-1H-benzimidazol-5-yl}pyrrolidin-2-yl]-1H-benzimidazol-2-yl}-4-methoxypyrrolidin-1-yl]-3-methyl-1-oxobutan-2-yl}carbamate] | 0.1 to 1 nM
9 | COC(=O)N[C@H](C(=O)N1CCC[C@H]1c1nc2cc([C@H]3CC[C@H](c4ccc5[nH]c([C@@H]6CCCN6C(=O)[C@@H](NC(=O)OC)C(C)C)nc5c4)N3c3cc(F)c(N4CCOC(c5ccccc5)C4)c(F)c3)ccc2[nH]1)C(C)C (stereo partly drawn) [Example 4.49, methyl {(2S)-1-[(2S)-2-{5-[(2R,5R)-1-[3,5-difluoro-4-(2-phenylmorpholin-4-yl)phenyl]-5-{2-[(2S)-1-{(2S)-2-[(methoxycarbonyl)amino]-3-methylbutanoyl}pyrrolidin-2-yl]-1H-benzimidazol-5-yl}pyrrolidin-2-yl]-1H-benzimidazol-2-yl}pyrrolidin-1-yl]-3-methyl-1-oxobutan-2-yl}carbamate] | < 0.1 nM
10 | CC(C)(C)OC(=O)NCC(=O)N1CCC[C@H]1c1nc2cc([C@@H]3CC[C@@H](c4ccc5[nH]c([C@@H]6CCCN6C(=O)CNC(=O)OC(C)(C)C)nc5c4)N3c3ccc(N4CCCCC4)c(F)c3)ccc2[nH]1 [Example 3.14, tert-butyl {2-[(2S)-2-(5-{(2S,5S)-5-{2-[(2S)-1-{[(tert-butoxycarbonyl)amino]acetyl}pyrrolidin-2-yl]-1H-benzimidazol-5-yl}-[3-fluoro-4-(piperidin-1-yl)phenyl]pyrrolidin-2-yl}-1H-benzimidazol-2-yl)pyrrolidin-1-yl]-2-oxoethyl}carbamate] | > 10 nM
11 | COC(=O)N[C@H](C(=O)N1[C@H](c2nc3cc([C@H]4CC[C@H](c5ccc6[nH]c([C@@H]7C[C@@H]8CCC[C@@H]8N7C(=O)[C@@H](NC(=O)OC)[C@@H](C)OC)nc6c5)N4c4cc(F)c(N5CCCCC5)c(F)c4)ccc3[nH]2)C[C@@H]2CCC[C@@H]21)[C@@H](C)OC [Example 3.33] | < 0.1 nM
